The text below walks through data of ChEMBL document CHEMBL3044923, “Synthesis of 9-O-glycosyl-berberine derivatives and bioavailability evaluation” (Med Chem Res, 2012).

Common to all, as to set-up: dose 100 mg/kg, route oral
Common to all, as to details: in vivo

The subject of data set [1] is Rattus norvegicus. The data set can be described thus: Tmax in SPF Rattus norvegicus (rat) at 100 mg/kg, po. Format: ADME, organism-based.
Data set [2] concerns Rattus norvegicus. The data set can be described thus: Cmax in SPF Rattus norvegicus (rat) at 100 mg/kg, po. It is filed as ADME, organism-based.
For data set [3], the system named is Rattus norvegicus. Nature of the data set: AUC in SPF Rattus norvegicus (rat) at 100 mg/kg, po. Format: ADME, organism-based, Plasma.
In data set [4] the test system is Rattus norvegicus. Nature of the data set: Half life in SPF Rattus norvegicus (rat) at 100 mg/kg, po. Format: ADME, organism-based.
The next data set has as its system Plasma. Nature of the data set: Stability in SPF Rattus norvegicus (rat) plasma assessed as berberine formation at 100 mg/kg, po. Format: ADME, organism-based.

Take `COc1ccc2cc3[n+](cc2c1OC1OC[C@@H](O)[C@@H](O)[C@@H]1O)CCc1cc2c(cc1-3)OCO2` (stereo partly drawn) [9-O-ARABINOSYL-BERBERINE]: in the data set with Rattus norvegicus [1], the Tmax was found to be 3 h. The same molecule had a Cmax with Rattus norvegicus [2] of 48.7 ng/mL. Moreover, the AUC with Rattus norvegicus [3] was 205.146 ng·h/mL. Moreover, the t1/2 in the data set with Rattus norvegicus [4] came to 7.43 h. In addition, in the data set with Plasma, the Stability result was “Unstable”.

As to `CCCCCCCCCCCCOc1c(OC)ccc2cc3[n+](cc12)CCc1cc2c(cc1-3)OCO2` [9-O-DODECYL-BERBERINE], the Tmax in the data set with Rattus norvegicus [1] is 3.5 h. The Cmax with Rattus norvegicus [2] was 3.71 ng/mL. The same molecule returned an AUC with Rattus norvegicus [3] of 14.592 ng·h/mL. The t1/2 with Rattus norvegicus [4] was determined as 7.86 h. Besides, the Stability entry in the data set on Plasma is reported as “Stable”.

Regarding `COc1ccc2cc3[n+](cc2c1OC[C@H](O)[C@H](O)CO)CCc1cc2c(cc1-3)OCO2` [9-O-ERYTHROL-BERBERINE], the time to peak (Tmax) in the data set with Rattus norvegicus [1] was found to be 3 h. Moreover, the peak level with Rattus norvegicus [2] (Cmax) was 37.5 ng/mL. This molecule also displayed an AUC in the data set with Rattus norvegicus [3] of 180.316 ng·h/mL. Besides, the t1/2 in the data set with Rattus norvegicus [4] stood at 7.31 h. For the same molecule, the Stability result in the data set on Plasma is listed as “Unstable”.

Consider `COc1ccc2cc3[n+](cc2c1OC1O[C@H](CO)[C@@H](O)[C@H](O)[C@H]1O)CCc1cc2c(cc1-3)OCO2` (stereo partly drawn) [9-O-GLUCOSYL-BERBERINE], for which the Tmax with Rattus norvegicus [1] came to 3 h. This molecule also showed a Cmax in the data set with Rattus norvegicus [2] of 63.4 ng/mL. The AUC in the data set on Rattus norvegicus [3] worked out at 268.94 ng·h/mL. Besides, the t1/2 with Rattus norvegicus [4] worked out at 7.58 h. For the same molecule, the Stability entry in the data set on Plasma was “Unstable”.

Regarding `CCCCCCCCOc1c(OC)ccc2cc3[n+](cc12)CCc1cc2c(cc1-3)OCO2` [9-O-OCTYL-BERBERINE], the Tmax in the data set with Rattus norvegicus [1] was 3 h. This molecule gave a maximum concentration (Cmax) in the data set on Rattus norvegicus [2] of 4.39 ng/mL. Also, the AUC in the data set on Rattus norvegicus [3] turned out to be 17.329 ng·h/mL. Also, the t1/2 in the data set with Rattus norvegicus [4] worked out at 7.85 h.

Consider `COc1ccc2cc3[n+](cc2c1OC)CCc1cc2c(cc1-3)OCO2` [BERBERINE], for which the Tmax in the data set on Rattus norvegicus [1] amounted to 2 h. The same molecule showed a Cmax in the data set on Rattus norvegicus [2] of 6.79 ng/mL. For the same molecule, the AUC in the data set on Rattus norvegicus [3] turned out to be 24.184 ng·h/mL. This molecule also registered a t1/2 in the data set on Rattus norvegicus [4] of 7.88 h.
